Measurements as given in patent US20220298163A1, “BTK INHIBITORS WITH IMPROVED DUAL SELECTIVITY” (BEIGENE, LTD., priority 2017, published 2022).

What was measured:
[1] = target: T1, Btk kinase (aa2-659, Carna Biosciences) (Homo sapiens, UniProt Q06187); assay: Btk kinase enzymatic assay (TR-FRET); type: biochemical; details: for IC50: TR-FRET, 30 μM ATP, compound incubated with kinase 60 minutes
T1 construct: purchased Carna Biosciences

Tec = target: T2, Tec (Homo sapiens, UniProt P42680); assay: Biochemical kinase selectivity: IC50 determination of Tec; details: for IC50: TR-FRET, 280 μM ATP; for Fold of Tec/Btk: ratio of IC50 values
T2 sequence (P42680 1-631): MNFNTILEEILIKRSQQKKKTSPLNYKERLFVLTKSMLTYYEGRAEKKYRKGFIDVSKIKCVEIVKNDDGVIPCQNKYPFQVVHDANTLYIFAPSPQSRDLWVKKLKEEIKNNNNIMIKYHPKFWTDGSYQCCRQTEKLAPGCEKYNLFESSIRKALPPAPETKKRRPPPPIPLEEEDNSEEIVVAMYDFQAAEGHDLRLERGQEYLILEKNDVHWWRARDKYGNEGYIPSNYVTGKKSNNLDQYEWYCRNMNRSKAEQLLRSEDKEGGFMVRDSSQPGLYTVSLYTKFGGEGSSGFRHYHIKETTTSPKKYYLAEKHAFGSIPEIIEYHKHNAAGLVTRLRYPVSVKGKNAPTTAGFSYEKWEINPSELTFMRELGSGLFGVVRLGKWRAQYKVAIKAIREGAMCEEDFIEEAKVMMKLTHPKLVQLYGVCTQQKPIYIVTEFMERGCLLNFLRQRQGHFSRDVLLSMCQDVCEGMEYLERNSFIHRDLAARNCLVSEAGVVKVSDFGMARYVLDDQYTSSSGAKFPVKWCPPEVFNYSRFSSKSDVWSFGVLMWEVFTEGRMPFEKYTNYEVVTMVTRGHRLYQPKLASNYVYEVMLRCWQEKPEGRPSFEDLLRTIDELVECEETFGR

T1 sequence (Q06187 2-659): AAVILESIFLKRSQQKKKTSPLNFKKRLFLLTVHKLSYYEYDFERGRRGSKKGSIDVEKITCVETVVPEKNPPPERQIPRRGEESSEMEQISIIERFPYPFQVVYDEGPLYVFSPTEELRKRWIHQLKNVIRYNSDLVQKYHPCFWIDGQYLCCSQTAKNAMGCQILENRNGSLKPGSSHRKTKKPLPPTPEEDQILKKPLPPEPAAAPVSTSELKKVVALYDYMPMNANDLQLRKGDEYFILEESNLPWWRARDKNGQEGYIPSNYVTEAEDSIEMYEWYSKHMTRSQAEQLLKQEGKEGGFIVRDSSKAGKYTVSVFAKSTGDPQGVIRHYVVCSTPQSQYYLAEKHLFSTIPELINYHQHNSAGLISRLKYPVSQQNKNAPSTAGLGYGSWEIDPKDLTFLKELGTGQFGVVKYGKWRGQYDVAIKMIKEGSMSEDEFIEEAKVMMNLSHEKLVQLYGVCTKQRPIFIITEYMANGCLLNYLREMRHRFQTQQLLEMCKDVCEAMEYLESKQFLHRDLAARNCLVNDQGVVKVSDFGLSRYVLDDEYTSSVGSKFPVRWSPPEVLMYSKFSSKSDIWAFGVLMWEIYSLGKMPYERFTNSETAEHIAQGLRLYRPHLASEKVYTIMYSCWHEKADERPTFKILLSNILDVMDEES

| Structure (SMILES) | IC50 [1] | IC50 (Tec) | Fold of Tec/Btk (Tec) | affinity / inhibitory activity for Btk (in words) [1] |
| --- | --- | --- | --- | --- |
| C=CC(=O)N1CCC(C2CCNc3c(C(N)=O)c(-c4cc(Cl)c(C5CC5)c(Cl)c4)nn32)CC1 (stereo not drawn) [Example A24, 7-(1-acryloylpiperidin-4-yl)-2-(3,5-dichloro-4-cyclopropylphenyl)-4,5,6,7-tetrahydropyrazolo[1,5-a]pyrimidine-3-carboxamide] | 28 nM |  |  |  |
| C=CC(=O)N1CCC2C(CNc3c(C(N)=O)c(-c4cc(OC)c(C)c(OC)c4)nn32)C1 (stereo not drawn) [Example D1, 7-acryloyl-2-(3,5-dimethoxy-4-methylphenyl)-4,5,5a,6,7,8,9,9a-octahydropyrazolo[1,5-a]pyrido[3,4-e]pyrimidine-3-carboxamide] | 10 nM |  |  |  |
| C=CC(=O)N1CCC(C2CCNc3c(C(N)=O)c(-c4cc(OC)cc(OC)c4)nn32)CC1 (stereo not drawn) [Example A9, 7-(1-acryloylpiperidin-4-yl)-2-(3,5-dimethoxyphenyl)-4,5,6,7-tetrahydropyrazolo[1,5-a]pyrimidine-3-carboxamide] | 41 nM |  |  |  |
| C=CC(=O)N1CCC(C2CCNc3c(C(N)=O)c(-c4cc(OCC)c(C)c(OCC)c4)nn32)CC1 (stereo not drawn) [Example A13, 7-(1-acryloylpiperidin-4-yl)-2-(3,5-diethoxy-4-methylphenyl)-4,5,6,7-tetrahydropyrazolo[1,5-a]pyrimidine-3-carboxamide] | > 100 nM |  |  |  |
| C=CC(=O)N1CCC(C2CCNc3c(C(N)=O)c(-c4cc(OC)c(C5=CCCCC5)c(OC)c4)nn32)CC1 (stereo not drawn) [Example A40, 7-(1-acryloylpiperidin-4-yl)-2-(2,6-dimethoxy-2′,3′,4′,5′-tetrahydro-[1,1′-biphenyl]-4-yl)-4,5,6,7-tetrahydropyrazolo[1,5-a]pyrimidine-3-carboxamide] | 11 nM | 253 nM | 23 fold |  |
| C=CC(=O)N1CC2(CC(C3CCNc4c(C(N)=O)c(-c5cc(OC)c(C)c(OC)c5)nn43)C2)C1 (stereo not drawn) [Example H1, 7-(2-acryloyl-2-azaspiro[3.3]heptan-6-yl)-2-(3,5-dimethoxy-4-methylphenyl)-4,5,6,7-tetrahydropyrazolo[1,5-a]pyrimidine-3-carboxamide] | 35 nM |  |  |  |
| C=CC(=O)N1CCC(C2CCNc3c(C(N)=O)c(-c4cc(Cl)c(C)c(OCC)c4)nn32)CC1 (stereo not drawn) [Example A49, 7-(1-acryloylpiperidin-4-yl)-2-(3-chloro-5-ethoxy-4-methylphenyl)-4,5,6,7-tetrahydropyrazolo[1,5-a]pyrimidine-3-carboxamide] | 18 nM |  |  |  |
| C=CC(=O)N1CC(C2CCNc3c(C(N)=O)c(-c4cc(Cl)c(C)c(Cl)c4)nn32)C1 (stereo not drawn) [Example B1, 7-(1-acryloylazetidin-3-yl)-2-(3,5-dichloro-4-methylphenyl)-4,5,6,7-tetrahydropyrazolo[1,5-a]pyrimidine-3-carboxamide] | 13 nM |  |  |  |
| C=CC(=O)N1CCC(C2CCNc3c(C(N)=O)c(-c4cc(OC)c(-c5ccsc5)c(OC)c4)nn32)CC1 (stereo not drawn) [Example A28, 7-(1-acryloylpiperidin-4-yl)-2-(3,5-dimethoxy-4-(thiophen-3-yl)phenyl)-4,5,6,7-tetrahydropyrazolo[1,5-a]pyrimidine-3-carboxamide] | 16 nM | 369 nM | 23 fold |  |
| C=CC(=O)N1CCC(C2CCNc3c(C(N)=O)c(-c4cc(OC)c(C5CCOCC5)c(OC)c4)nn32)CC1 (stereo not drawn) [Example A32, 7-(1-acryloylpiperidin-4-yl)-2-(3,5-dimethoxy-4-(tetrahydro-2H-pyran-4-yl)phenyl)-4,5,6,7-tetrahydropyrazolo[1,5-a]pyrimidine-3-carboxamide] | 52 nM |  |  |  |
| C=CC(=O)N1CCC(C2CCNc3c(C(N)=O)c(-c4cc(OC)c(-c5cc[nH]n5)c(OC)c4)nn32)CC1 (stereo not drawn) [Example A27, 7-(1-acryloylpiperidin-4-yl)-2-(3,5-dimethoxy-4-(1H-pyrazol-3-yl)phenyl)-4,5,6,7-tetrahydropyrazolo[1,5-a]pyrimidine-3-carboxamide] | 18 nM | > 1000 nM |  |  |
| C=CC(=O)N1CCC(C2CCNc3c(C(N)=O)c(-c4cc(Cl)c(OC)c(Cl)c4)nn32)CC1 (stereo not drawn) [Example A15, 7-(1-acryloylpiperidin-4-yl)-2-(3,5-dichloro-4-methoxyphenyl)-4,5,6,7-tetrahydropyrazolo[1,5-a]pyrimidine-3-carboxamide] | 20 nM | 1000 nM | 50 fold | poor affinity for Btk |
| C=CC(=O)N1CCC2(CC1)CC(C1CCNc3c(C(N)=O)c(-c4cc(OC)c(C)c(OC)c4)nn31)C2 (stereo not drawn) [Example F1, 7-(7-acryloyl-7-azaspiro[3.5]nonan-2-yl)-2-(3,5-dimethoxy-4-methylphenyl)-4,5,6,7-tetrahydropyrazolo[1,5-a]pyrimidine-3-carboxamide] | > 100 nM |  |  |  |
| C=CC(=O)N1CC2CCC(C1)C2C1CCNc2c(C(N)=O)c(-c3cc(OC)c(C)c(OC)c3)nn21 (stereo not drawn) [Example G1, 7-(3-acryloyl-3-azabicyclo[3.2.1]octan-8-yl)-2-(3,5-dimethoxy-4-methylphenyl)-4,5,6,7-tetrahydropyrazolo[1,5-a]pyrimidine-3-carboxamide] | 12 nM |  |  |  |
| C=CC(=O)N1CCC(C2CCNc3c(C(N)=O)c(-c4ccccc4)nn32)CC1 (stereo not drawn) [Example 144, reference compound] |  | 491 nM | 3.5 fold |  |
| C=CC(=O)N1CCC(C2CCNc3c(C(N)=O)c(-c4cc(Cl)c(Br)c(OC(F)(F)F)c4)nn32)CC1 (stereo not drawn) [Example A26, 7-(1-acryloylpiperidin-4-yl)-2-(4-bromo-3-chloro-5-(trifluoromethoxy)phenyl)-4,5,6,7-tetrahydropyrazolo[1,5-a]pyrimidine-3-carboxamide] | 41 nM |  |  |  |
| C=CC(=O)N1CCC(C2CCNc3c(C(N)=O)c(-c4cc(C)c(C5CC5)c(C)c4)nn32)CC1 (stereo not drawn) [Example A29, 7-(1-acryloylpiperidin-4-yl)-2-(4-cyclopropyl-3,5-dimethylphenyl)-4,5,6,7-tetrahydropyrazolo[1,5-a]pyrimidine-3-carboxamide] | 16 nM | > 1000 nM |  |  |
| C=CC(=O)N1CCC(C2CCNc3c(C(N)=O)c(-c4cc(C)cc(C)c4)nn32)CC1 (stereo not drawn) [Example A30, 7-(1-acryloylpiperidin-4-yl)-2-(3,5-dimethylphenyl)-4,5,6,7-tetrahydropyrazolo[1,5-a]pyrimidine-3-carboxamide] | 53 nM | > 1000 nM |  |  |
| C=CC(=O)N1CCC(C2CCNc3c(C(N)=O)c(-c4ccc(Cl)cc4)nn32)CC1 (stereo not drawn) [reference compound] | 22 nM |  |  |  |
| C=CC(=O)NCC1CCNc2c(C(N)=O)c(-c3cc(OC)c(C)c(OC)c3)nn21 (stereo not drawn) [Example E1, 7-(acrylamidomethyl)-2-(3,5-dimethoxy-4-methylphenyl)-4,5,6,7-tetrahydropyrazolo[1,5-a]pyrimidine-3-carboxamide] | 33 nM |  |  |  |
| C=CC(=O)N1CCC(C2CCNc3c(C(N)=O)c(-c4cc(OC)c(-c5ccccc5)c(OC)c4)nn32)CC1 (stereo not drawn) [Example A10, 7-(1-acryloylpiperidin-4-yl)-2-(2,6-dimethoxy-[1,1′-biphenyl]-4-yl)-4,5,6,7-tetrahydropyrazolo[1,5-a]pyrimidine-3-carboxamide] | 51 nM |  |  |  |
| C=CC(=O)N1CCC(C2CCNc3c(C(N)=O)c(-c4cc(OC)c(C=C)c(OC)c4)nn32)CC1 (stereo not drawn) [Example A51, 7-(1-acryloylpiperidin-4-yl)-2-(3,5-dimethoxy-4-vinylphenyl)-4,5,6,7-tetrahydropyrazolo[1,5-a]pyrimidine-3-carboxamide] |  | 136 nM |  |  |
| C=CC(=O)N1CCC2Nc3c(C(N)=O)c(-c4cc(OC)c(C)c(OC)c4)nn3CC2C1 (stereo not drawn) [Example D2, 7-acryloyl-2-(3,5-dimethoxy-4-methylphenyl)-4,4a,5,6,7,8,8a,9-octahydropyrazolo[1,5-a]pyrido[4,3-d]pyrimidine-3-carboxamide] | 63 nM | > 1000 nM |  |  |
| C=CC(=O)N1CCC(C2CCNc3c(C(N)=O)c(-c4cc(OC)c(OC)c(OC)c4)nn32)CC1 (stereo not drawn) [Example A14, 7-(1-acryloylpiperidin-4-yl)-2-(3,4,5-trimethoxyphenyl)-4,5,6,7-tetrahydropyrazolo[1,5-a]pyrimidine-3-carboxamide] |  | > 1000 nM |  |  |
| C=CC(=O)N1CCC(C2CCNc3c(C(N)=O)c(-c4cc(Cl)c(C5CC5)c(OCC)c4)nn32)CC1 (stereo not drawn) [Example A48, 7-(1-acryloylpiperidin-4-yl)-2-(3-chloro-4-cyclopropyl-5-ethoxyphenyl)-4,5,6,7-tetrahydropyrazolo[1,5-a]pyrimidine-3-carboxamide] | 16 nM |  |  |  |
| C=CC(=O)N1CCC(C2CCNc3c(C(N)=O)c(-c4cc(OC)c(-c5c(C)noc5C)c(OC)c4)nn32)CC1 (stereo not drawn) [Example A31, 7-(1-acryloylpiperidin-4-yl)-2-(4-(3,5-dimethylisoxazol-4-yl)-3-dimethoxyphenyl)-4,5,6,7-tetrahydropyrazolo[1,5-a]pyrimidine-3-carboxamide] | > 100 nM |  |  |  |
| C=CC(=O)N1CC2CNc3c(C(N)=O)c(-c4cc(OC)c(OC)c(OC)c4)nn3C2C1 (stereo not drawn) [Example C2, 7-acryloyl-2-(3,4,5-trimethoxyphenyl)-5,5a,6,7,8,8a-hexahydro-4H-pyrazolo[1,5-a]pyrrolo[3,4-e]pyrimidine-3-carboxamide] | 34 nM |  |  |  |
